Reference: US9481684B2, “Gonadotropin releasing hormone receptor antagonists, method for the preparation thereof and pharmaceutical composition comprising the same” (SK CHEMICALS CO., LTD., priority 2012, dated 2016)
Like-named read-outs stand apart in the source and are kept apart here.

How the values were obtained:
GnRH receptor [1] = biological target: T1, GnRH receptor (Homo sapiens, UniProt P30968); assay: GnRH receptor-membrane binding assay ([125I]-D-Trp6-LHRH displacement); set-up: purchased PerkinElmer; host or cells: CHO-K1 (ATCC CCL-61), stably transfected; settings: for inhibitory effect compared with compounds comprising alkyl group (Examples 1-2 and 1-3): benzyl versus alkyl substituent at spiro-piperidine, comment on Table 10 (binding and NFAT reporter); for inhibition at 0.01 µM: read-out: GnRH binding inhibition (%) at 10 nM
T1 sequence (P30968 1-328): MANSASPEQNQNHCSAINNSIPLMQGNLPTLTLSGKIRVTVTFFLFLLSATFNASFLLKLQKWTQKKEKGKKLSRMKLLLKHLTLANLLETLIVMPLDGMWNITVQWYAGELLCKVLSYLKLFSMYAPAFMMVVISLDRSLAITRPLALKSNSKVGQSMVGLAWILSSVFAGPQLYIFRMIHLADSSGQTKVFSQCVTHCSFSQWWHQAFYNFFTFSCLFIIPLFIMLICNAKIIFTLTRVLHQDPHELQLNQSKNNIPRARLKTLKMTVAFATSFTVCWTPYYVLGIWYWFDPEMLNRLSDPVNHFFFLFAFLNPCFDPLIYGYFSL
Method: A GnRH receptor membrane binding assay was carried out for the compounds of the present invention by employing a membrane substrate (PerkinElmer) isolated from CHO-K1 cells (ATCC CCL-61) stably transfected with a GnRH receptor.
A reaction was initiated by the addition of a 0.2 nM [^125I]-labeled D-Trp^6-LHRH peptide and the GnRH receptor membrane substrate at a density of 1 μg/250 μL/well, together with the inventive compounds at various concentrations ranging from 0.1 nM to 100 nM, to a binding buffer composed of 25 mM Hepes (pH 7.4), 10 mM MgCl2, 1 mM CaCl2 and 0.5% BSA (pH 7.4). The reaction mixture was incubated at 27° C. for 1 hr and subjected to vacuum suction for binding to a filter (Fitermat A, PerkinElmer). The filter was washed several times with 50 mM tris-HCl buffer to terminate the reaction. The radioactivity binding to the filter was measured using MicroBeta2 TriLux (PerkinElmer). The binding inhibition rate (%) of the inventive compounds were analyzed on the basis of the measured radioactivity, and IC50 value was calculated using a non-linear least square regression method with Prism (GraphPad, Inc.).

GnRH receptor [2] = biological target: T1, GnRH receptor; assay: NFAT reporter (luciferase) gene expression assay for antagonistic effect on GnRH receptor, HEK293 transformed with pcDNA3.1/GnRH receptor and pGL4/NFAT promoter; assay type: cell-based
Method: For evaluation of antagonistic effect on GnRH receptor, double-transformed cell line, HEK293 (ATCC CRL-1573) which is transformed with pcDNA3.1/GnRH receptor and pGL4/NFAT promoter, was employed.
To conduct a GnRH receptor assay, the HEK293 (ATCC CRL-1573) cell line was diluted at a density of 3×10^4 cells/well in a DMEM medium supplemented with 10% FBS, 1% Penicillin-Streptomycin, and plated into polylysine-coated 96-well plates having a white-clear bottom, followed by incubating the cells at 37° C. for 24 hrs. Then, the medium was changed with a serum-free DMEM medium (1% Penicillin-Streptomycin), and the cells were incubated for an additional 16 hrs before use.
Test compounds were added to the wells in an amount of 1 μM to 0.01 nM, respectively, and further incubated for 1 hr. Then, leuprolide acetate as a ligand (Sigma) was added to the wells in an amount of 1 nM or 20 nM and subjected to an additional incubation for 6 hrs. The reagent of Luciferase assay system (Promega, Cat. No. E1500) was added to the wells and luminescence was measured using a luminometer (PerkinElmer, VICTOR3™, 1420 Multilabel Counter). The compound of formula 10b described in J. Med. Chem. 2008, 51, 7478 was used as a comparative compound.
Each sample was analyzed at a 6-dose level and the NFAT reporter inhibitory rate (%) of the inventive compounds was calculated according to the following equation based on the measured luminescence. Inhibition (%)={1−(compound−negative control)/(positive control−negative control)}×100 [Equation]
wherein, positive control is GnRH treated group; and negative control is non-treated group.

[3] = compound at 10 nM, 0.2 nM [125I]-D-Trp6-LHRH, CHO-K1 GnRH receptor membrane
[4] = compound at 100 nM, leuprolide acetate as ligand, HEK293, read-out: NFAT reporter activity inhibition (%) at 100 nM
[5] = HEK293, read-out: NFAT reporter activity inhibition (%) at 100 nM

Structure (SMILES)	inhibition at 0.01 µM (GnRH receptor [1]; [3])	inhibition at 0.1 µM (GnRH receptor [2]; [4])	also measured
COC(=O)c1cccc(CN2CCC3(CC2)OCc2c3c(=O)n(C[C@H](N)c3ccccc3)c(=O)n2Cc2c(F)cccc2C(F)(F)F)c1 [Example 1-19, (R)-methyl 3-((3-(2-amino-2-phenylethyl)-1-(2-fluoro-6-(trifluoromethyl)benzyl)-2,4-dioxo-2,3,4,7-tetrahydro-1H-spiro[furo[3,4-d]pyrimidine-5,4′-piperidin]-1′-yl)methyl)benzoate]	97.5%	89%	inhibitory effect compared with compounds comprising alkyl group (Examples 1-2 and 1-3) (GnRH receptor [1]): improved inhibitory effect
N[C@@H](Cn1c(=O)c2c(n(Cc3c(F)cccc3C(F)(F)F)c1=O)COC21CCN(Cc2cocn2)CC1)c1ccccc1 [Example 1-63, (R)-3-(2-amino-2-phenylethyl)-1-(2-fluoro-6-(trifluoromethyl)benzyl)-1′-(oxazol-4-ylmethyl)-1H-spiro[furo[3,4-d]pyrimidine-5,4′-piperidine]-2,4(3H,7H)-dione]	88.6%	18%	
N[C@@H](Cn1c(=O)c2c(n(Cc3c(F)cccc3C(F)(F)F)c1=O)COC21CCN(Cc2ccccc2F)CC1)c1ccccc1 [Example 1-29, (R)-3-(2-amino-2-phenylethyl)-1-(2-fluoro-6-(trifluoromethyl)benzyl)-1′-(2-fluorobenzyl)-1H-spiro[furo[3,4-d]pyrimidine-5,4′-piperidine]-2,4(3H,7H)-dione]	104%	58%	
CONC(=O)Nc1cccc(C(Cn2c(=O)c3c(n(Cc4c(F)cccc4C(F)(F)F)c2=O)COC32CCN(Cc3ccc(C(F)(F)F)o3)CC2)NC(=O)OC(C)(C)C)c1 (stereo not drawn) [Example 63, tert-butyl (2-(1-(2-fluoro-6-(trifluoromethyl)benzyl)-2,4-dioxo-1′-((5-(trifluoromethyl)furan-2-yl)methyl)-1H-spiro[furo[3,4-d]pyrimidine-5,4′-piperidin]-3(2H,4H,7H)-yl)-1-(3-(3-methoxyureido)phenyl)ethyl)carbamate]	89.8%	100%	
N[C@@H](Cn1c(=O)c2c(n(Cc3c(F)cccc3F)c1=O)COC21CCN(Cc2ccc(C(F)(F)F)o2)CC1)c1ccccc1 [Example 1-42, (R)-3-(2-amino-2-phenylethyl)-1-(2,6-difluorobenzyl)-1′-((5-(trifluoromethyl)furan-2-yl)methyl)-1H-spiro[furo[3,4-d]pyrimidine-5,4′-piperidine]-2,4(3H,7H)-dione]	93.9%	82%	
N#Cc1cccc(CN2CCC3(CC2)OCc2c3c(=O)n(C[C@H](N)c3ccccc3)c(=O)n2Cc2c(F)cccc2C(F)(F)F)c1 [Example 1-15, (R)-3-((3-(2-amino-2-phenylethyl)-1-(2-fluoro-6-(trifluoromethyl)benzyl)-2,4-dioxo-2,3,4,7-tetrahydro-1H-spiro[furo[3,4-d]pyrimidine-5,4′-piperidine]-1′-yl)methyl)benzonitrile]			inhibitory effect compared with compounds comprising alkyl group (Examples 1-2 and 1-3) (GnRH receptor [1]): improved inhibitory effect; inhibition at 0.01 µM (GnRH receptor [1]): 91.3%; inhibition at 0.1 µM (GnRH receptor [2]; [5]): 67%
Cc1ccc(CN2CCC3(CC2)OCc2c3c(=O)n(C[C@H](N)c3ccccc3)c(=O)n2Cc2c(F)cccc2C(F)(F)F)cc1 [Example 1-50, (R)-3-(2-amino-2-phenylethyl)-1-(2-fluoro-6-(trifluoromethyl)benzyl)-1′-(4-methylbenzyl)-1H-spiro[furo[3,4-d]pyrimidine-5,4′-piperidine]-2,4(3H,7H)-dione]			inhibition at 0.01 µM (GnRH receptor [1]): 96.3%; inhibition at 0.1 µM (GnRH receptor [2]; [5]): 17%
N[C@@H](Cn1c(=O)c2c(n(Cc3c(F)cccc3C(F)(F)F)c1=O)COC21CCN(Cc2ccc(Cl)cc2)CC1)c1ccccc1 [Example 1-51, (R)-3-(2-amino-2-phenylethyl)-1′-(4-chlorobenzyl)-1-(2-fluoro-6-(trifluoromethyl)benzyl)-1H-spiro[furo[3,4-d]pyrimidine-5,4′-piperidine]-2,4(3H,7H)-dione]	95.6%	30%	
Cc1ccccc1CN1CCC2(CC1)OCc1c2c(=O)n(C[C@H](N)c2ccccc2)c(=O)n1Cc1c(F)cccc1C(F)(F)F [Example 1-26, (R)-3-(2-amino-2-phenylethyl)-1-(2-fluoro-6-(trifluoromethyl)benzyl)-1′-(2-methylbenzyl)-1H-spiro[furo[3,4-d]pyrimidine-5,4′-piperidine]-2,4(3H,7H)-dione]	102%	22%	
COc1cccc(CN2CCC3(CC2)OCc2c3c(=O)n(C[C@H](N)c3ccccc3)c(=O)n2Cc2c(F)cccc2C(F)(F)F)c1 [Example 1-14, (R)-3-(2-amino-2-phenylethyl)-1-(2-fluoro-6-(trifluoromethyl)benzyl)-1′-(3-methoxybenzyl)-1H-spiro[furo[3,4-d]pyrimidine-5,4′-piperidine]-2,4(3H,7H)-dione]			inhibition at 0.01 µM (GnRH receptor [1]): 96%; inhibition at 0.1 µM (GnRH receptor [2]; [5]): 34%
Cc1cccc(C(Cn2c(=O)c3c(n(Cc4c(F)cccc4C(F)(F)F)c2=O)COC32CCN(Cc3ccc(C(F)(F)F)o3)CC2)NCCCC(=O)O)n1 (stereo not drawn) [Example 36, 4-((2-(1-(2-fluoro-6-(trifluoromethyl)benzyl)-2,4-dioxo-1′-((5-(trifluoromethyl)furan-2-yl)methyl)-1H-spiro[furo[3,4-d]pyrimidine-5,4′-piperidin]-3(2H,4H,7H)-yl)-1-(6-methylpyridin-2-yl)ethyl)amino)butanoic acid]	88%		inhibition at 0.01 µM (GnRH receptor [2]; compound at 10 nM, leuprolide acetate as ligand, HEK293): 88.2%
COCCN1CCC2(CC1)OCc1c2c(=O)n(C[C@H](N)c2ccccc2)c(=O)n1Cc1c(F)cccc1C(F)(F)F [Example 1-2, (R)-3-(2-amino-2-phenylethyl)-1-(2-fluoro-6-(trifluoromethyl)benzyl)-1′-(2-methoxyethyl)-1H-spiro[furo[3,4-d]pyrimidine-5,4′-piperidine]-2,4(3H,7H)-dione]	50.8%		
CC(C)(C)CN1CCC2(CC1)OCc1c2c(=O)n(C[C@H](N)c2ccccc2)c(=O)n1Cc1c(F)cccc1C(F)(F)F [Example 1-3, (R)-3-(2-amino-2-phenylethyl)-1-(2-fluoro-6-(trifluoromethyl)benzyl)-1′-neopentyl-1H-spiro[furo[3,4-d]pyrimidine-5,4′-piperidine]-2,4(3H,7H)-dione]			inhibition at 0.1 µM (GnRH receptor [2]; [5]): 15%
N[C@@H](Cn1c(=O)c2c(n(Cc3c(F)cccc3C(F)(F)F)c1=O)CCC21CCN(Cc2ccc(C(F)(F)F)o2)CC1)c1ccccc1 [Example 3-5, (R)-3-(2-amino-2-phenylethyl)-1-(2-fluoro-6-(trifluoromethyl)benzyl)-1′-((5-(trifluoromethyl)furan-2-yl)methyl)-6,7-dihydrospiro[cyclopenta[d]pyrimidine-5,4′-piperidine]-2,4(1H,3H)-dione]	101%	99%	
N[C@@H](Cn1c(=O)c2c(n(Cc3c(F)cccc3C(F)(F)F)c1=O)COC21CCN(Cc2cccc3nonc23)CC1)c1ccccc1 [Example 1-25, (R)-3-(2-amino-2-phenylethyl)-1′-(benzo[c][1,2,5]oxadiazol-4-ylmethyl)-1-(2-fluoro-6-(trifluoromethyl)benzyl)-1H-spiro[furo[3,4-d]pyrimidine-5,4′-piperidine]-2,4(3H,7H)-dione]	91.3%	56%	
